Results published in patent US3984501A, “Phenyl- and benzylphosphonate esters” (priority 1975, dated 1976).
pIC50: −log10 of the molar value. Like-named read-outs stand apart in the source and are kept apart here.

Assays:
[1] = tested on: PGE2-induced contraction of isolated guinea pig ileum (GPI) and isolated rat fundus (RF); experiment: Inhibition of PGE2-induced contraction of isolated smooth muscle preparations (anti-prostaglandin activity); type: cell-based; conditions: for pIC50: isolated GPI or RF (tissue not specified per value), incubation 15 min initial exposure, 5 min each successive increment, read-out: I.C.50 (vs PGE2)
Procedure: (§1) The following compounds were tested for their effects on isolated smooth muscle preparations ##SPC18##
(§2) the techniques for setting up the isolated guinea pig ileum (GPI) and isolated rat fundus (RF) were those described in Pharmacological Experiments on Isolated Preparations (E. S. Livingston Ltd., Publishers). The tissues were bathed in Krebs solution and isotonic contractions were recorded. To elicit a maximal contraction after the initial equilibration period, the tissue (GPI or RF) was exposed to 20 ng/ml acetylcholine (ACh). After a dose-dependent pattern was established with ACh, the tissue was exposed to 20 ng/ml of PGE2 in order to elicit a maximal prostaglandin-induced contraction. Test doses of PGE2 and ACh which cause 50% of the maximal contractions were determined.
(§3) To test a compound for anti-prostaglandin activity, the tissue was incubated with a compound for a fixed period of time (15 minutes for the initial exposure to the test drug and 5 minutes for each successive increment in concentration) followed by the test dose of PGE2 or ACh to elicit a tissue contraction. Inhibition of contraction was measured as percent reduction in the magnitude of the response to the test dose of PGE2. The concentration of drug which inhibited the test concentration of PGE2 by 50% (I.C.50) was determined from the dose-response curve obtained by plotting concentration versus percent inhibition. Test contractions with ACh determined whether any decrease in contraction amplitude was specific for prostaglandin-induced contractions or a general deterioration of tissue function. The term selectivitiy refers to % inhibition of ACh-induced contractions at compound dosages which inhibi the PGE2 -induced contraction by the indicated percentage.

[2] = tested on: ACh-induced contractions of isolated guinea pig ileum (GPI) and isolated rat fundus (RF); experiment: Inhibition of ACh-induced contraction of isolated smooth muscle (selectivity); type: cell-based; conditions: for Selectivity: % inhibition of ACh-induced contractions at dosages which inhibit the PGE2-induced contraction by 50%: at 50% inhibition of PGE2-induced contraction; for Selectivity: % inhibition of ACh-induced contractions at dosages which inhibit the PGE2-induced contraction by 70%: at 70% inhibition of PGE2-induced contraction; for Selectivity: % inhibition of ACh-induced contractions at dosages which inhibit the PGE2-induced contraction by 90%: at 90% inhibition of PGE2-induced contraction
Procedure: as §1, §2, §3

male Swiss Webster mice = experiment: Systemic toxicity in male Swiss Webster mice; type: in vivo, mouse; conditions: from Table 2, vs compound 1
Procedure: (§4) Compounds 1-3 were tested for systemic toxicity. Male Swiss Webster mice were injected (i.p. or p.o.) with the test compound dissolved in saline (0.2 ml). The mice were examined every half hour for the first two hours after treatment and every hour for the following four hours. Thereafter the mice were examined irregularly, with a final examination at the end of the 48-hour test.

[3] = Systemic toxicity in male Swiss Webster mice; type: in vivo, mouse; conditions: mouse, in vivo, in saline, 24 hours, read-out: L.D.50 at 24 hours
Procedure: as §4

[4] = Topical toxicity in hairless mice; conditions: mouse, in vivo, topical or ocular, topically, 0.1 ml of 90% PEG, read-out: L.D.50 at 24 hours
Procedure: Topical toxicity was determined at a single dosage level on two hairless mice. The animals were restrained with neck collars. The test compound was applied in a total volume of 0.1 ml of 90% PEG (10% H2 O) spread uniformly over the back by means of a Q-tip.

Structure (SMILES): O=C(c1ccc(OP(=O)(O)c2ccccc2)cc1)C(Cc1ccccc1)Cc1ccc(Cl)cc1 (centres unmarked) [Compound 2]
- pIC50 [1]: 6.70
- Selectivity: % inhibition of ACh-induced contractions at dosages which inhibit the PGE2-induced contraction by 50% [2]: 0%
- Selectivity: % inhibition of ACh-induced contractions at dosages which inhibit the PGE2-induced contraction by 70% [2]: 0%
- Selectivity: % inhibition of ACh-induced contractions at dosages which inhibit the PGE2-induced contraction by 90% [2]: 30%
- toxicity relative to compound 1 (male Swiss Webster mice): considerably less toxic than compound 1
- LD50 at 24 h ([3]; ip): 361 mg/kg

Structure (SMILES): O=C(c1ccc(OP(=O)(O)Cc2ccccc2)cc1)C(Cc1ccccc1)Cc1ccc(Cl)cc1 (centres unmarked) [Compound 3]
- LD50 at 24 h [4]: > 4350 mg/kg
- pIC50 [1]: 8.21
- times more potent than compound 1 ([1]; potency ratio vs compound 1, from Table 1): about 8 times
- times more potent than compound 2 ([1]; potency ratio vs compound 2, from Table 1): approximately 30 times
- Selectivity: % inhibition of ACh-induced contractions at dosages which inhibit the PGE2-induced contraction by 50% [2]: 0%
- Selectivity: % inhibition of ACh-induced contractions at dosages which inhibit the PGE2-induced contraction by 70% [2]: 0%
- Selectivity: % inhibition of ACh-induced contractions at dosages which inhibit the PGE2-induced contraction by 90% [2]: 10-15%
- toxicity relative to compound 1 (male Swiss Webster mice): considerably less toxic than compound 1
- LD50 at 24 h ([3]; ip): 408 mg/kg
- LD50 at 24 h ([3]; po): 715 mg/kg

Structure (SMILES): O=C(c1ccc(OP(=O)(O)Oc2ccccc2)cc1)C(Cc1ccccc1)Cc1ccc(Cl)cc1 (centres unmarked) [Compound 1, reference compound]
- LD50 at 24 h [4]: > 4300 mg/kg
- pIC50 ([1]; Cavia porcellus): 7.33
- Selectivity: % inhibition of ACh-induced contractions at dosages which inhibit the PGE2-induced contraction by 50% [2]: 0%
- Selectivity: % inhibition of ACh-induced contractions at dosages which inhibit the PGE2-induced contraction by 70% [2]: 0%
- Selectivity: % inhibition of ACh-induced contractions at dosages which inhibit the PGE2-induced contraction by 90% [2]: 0%
- LD50 at 24 h ([3]; ip): 194 mg/kg
- LD50 at 24 h ([3]; po): 235 mg/kg
